Here are results for 6 molecules from patent US20250019644A1, “Quantitatively Mapping Amino Acid Properties (QMAP) Cell Culture Media” (UNIVERSITY OF IOWA RESEARCH FOUNDATION, priority 2023, published 2025).

What all share (format): cell-based, human
One assay relates to 293T. The assay is described as follows: CellTiter-Glo Luminescent Cell Viability Assay. To be noted: 2-fold dilution series, 48 hours, QMAP. The protocol:
(§1) HT29, 293T, U2OS, and 3T3-LI cells were plated on an opaque 96-well plate in 1:1 DMEM. […] At the appropriate time point, 100 μl of CellTiter-Glo reagent (Promega #G7570) was added to each well. The plate was gently mixed for 2 minutes to induce lysis, incubated at room-temperature for 10 minutes, and then luminescence was measured.
To test whether tryptophan inhibition of growth applied to other cell lines and persisted in conventional cell culture media, two human cancer cell lines (HT29, U2OS), a transformed human embryonic kidney cell line (293T), and a mouse, fibroblast-like cell line (3T3-L1) were grown in DMEM for 24 hours and then treated with 2 mM tryptophan or vehicle. After 24 hours, cells were assayed by CellTiter-Glo, which indicates cell viability by measuring ATP production.
In general terms: In ATP-based viability assays light output follows the ATP content of the culture.

A further assay has as its system U2OS. The assay is described as follows: CellTiter-Glo Luminescent Cell Viability Assay. To be noted: 2-fold dilution series, 48 hours, QMAP. The protocol: as §1
To test whether tryptophan inhibition of growth applied to other cell lines and persisted in conventional cell culture media, two human cancer cell lines (HT29, U2OS), a transformed human embryonic kidney cell line (293T), and a mouse, fibroblast-like cell line (3T3-L1) were grown in DMEM for 24 hours and then treated with 2 mM tryptophan or vehicle. […]

Assay [1] deals with HCT116 cells. Kind of assay: Activity metabolomics screen of tryptophan metabolites, GC-MS profiling. To be noted: 2 mM, 6 hours, QMAP. The protocol:
6-well plates were treated for 6 hours with 2 mM of the indicated tryptophan metabolite for 6 hours before media was quickly removed, and plates were washed 2× with ice-cold PBS and 2× with ice-cold water before being snap frozen with liquid nitrogen. Cell plates were lyophilized overnight before metabolite extraction. To extract metabolites, 1 ml of an extraction buffer composed of 2:2:1 methanol/acetonitrile/water with internal standards at 1 μg/ml each (D4-Citric Acid, 13C5-Glutamine, 13C5-Glutamic Acid, 13C6-Lysine, 13C5-Methionine, 13C3-Serine, D4-Succinic Acid, 13C11-Tryptophan, and D8-Valine; Cambridge Isotope Laboratories) was added to the lyophilized cell samples. Cells were scraped for 20 seconds and collected into Eppendorf tubes, flash-frozen in liquid nitrogen, and sonicated for 10 minutes.
(§2) Samples were then placed on a rotating platform at −20° C. for 1 hour and centrifuged at 4° C. for 10 minutes at 21,000×g. 300 μL of the cleared metabolite extracts were transferred to fresh tubes for additional processing. An equal volume of each extract was pooled to serve as a quality control (QC) sample, which was analyzed at the beginning, end, and at a regular interval throughout an instrument run. Extraction buffer alone was analyzed as a processing blank sample. Metabolite extracts, the quality control sample, and the processing blank were evaporated to dryness using a speed-vacuum.
The dried metabolite extracts, QC sample, and processing blank sample, were derivatized using methoxyamine hydrochloride (MOX) and N,O-Bis (trimethylsilyl) trifluoroacetamide (TMS) (Sigma). Briefly, dried extracts were reconstituted in 30 μL of 11.4 mg/ml MOX in anhydrous pyridine (VWR), vortexed for 10 minutes, and heated at 60° C. for 1 hour. Next, 20 μL TMS was added to each reconstituted extract, vortexed for 1 minute, and heated at 60° C. for 30 min. The derivatized metabolite extracts, blanks, and QC were immediately analyzed using GC/MS.
GC chromatographic separation was conducted on a Thermo Trace 1300 GC with a TraceGold TG-5SilMS column (0.25 μM film thickness; 0.25 mm ID; 30 m length). An injection volume of 1 μL was used for all samples, blanks, and QCs. The GC was operated in split mode with the following settings: 20:1 split ratio; split flow: […], purge flow: 5 mL/min, Carrier mode: Constant Flow, Carrier flow rate: 1.2 mL/min). The GC inlet temperature was 250° C. The GC oven temperature gradient was as follows: 80° C. for 3 min, ramped at 20° C./min to a maximum temperature of 280° C., which was held for 8 min. The injection syringe was washed 3 times with pyridine between each sample. Metabolites were detected using a Thermo ISQ single quadrupole mass spectrometer. The data was acquired from 3.90 to 21.00 min in EI mode (70eV) by single ion monitoring (SIM).
(§3) Acquired LC-MS and GC-MS data were processed using the Thermo Scientific TraceFinder software. Targeted metabolites were identified by matching accurate mass and retention times to the University of Iowa Metabolomics Core Facility's in-house library of confirmed standards. After peak area integration by TraceFinder, NOREVA software was applied for signal drift correction on a metabolite-to-metabolite basis using the pooled QC sample that had been analyzed throughout the instrument run. Within individual samples, Post-NOREVA metabolite levels were divided by the total metabolite load (sum of all metabolite values) to equally weight individual metabolites for comparison across samples.

The test system of assay [2] is HCT116 cells. The assay is described as follows: Metabolic profiling of tryptophan metabolite-treated cells, LC-MS. To be noted: 6 hours, QMAP. The protocol: […] Cell plates were lyophilized overnight before metabolite extraction. To extract metabolites, 1 ml of an extraction buffer composed of 2:2:1 methanol/acetonitrile/water with internal standards at 1 μg/ml each (D4-Citric Acid, 13C5-Glutamine, 13C5-Glutamic Acid, 13C6-Lysine, 13C5-Methionine, 13C3-Serine, D4-Succinic Acid, 13C11-Tryptophan, and D8-Valine; Cambridge Isotope Laboratories) was added to the lyophilized cell samples. Cells were scraped for 20 seconds and collected into Eppendorf tubes, flash-frozen in liquid nitrogen, and sonicated for 10 minutes.
as §2
Dried extracts were reconstituted in 30 μL of acetonitrile/water (1:1, V/V), vortexed for 10 minutes, and incubated at −20° C. for 18 hours. Samples were then centrifuged at 4° C. for 2 minutes at 21,000×g and the supernatant was transferred to autosampler vials for analysis.
For LC chromatographic separation, 2 μL of reconstituted metabolite extracts, QC sample, and processing blank were run on a Millipore SeQuant ZIC-PHILIC (2.1×150 mm, 5 um particle size, Millipore Sigma #150460) column with a ZIC-PHILIC guard column (20×2.1 mm, Millipore Sigma #150437) attached to a Thermo Vanquish Flex UHPLC. The mobile phase comprised Buffer A [20 mM (NH4)2CO3, 0.1% NH4OH (v/v)] and Buffer B [acetonitrile]. The chromatographic gradient was run at a flow rate of 0.150 mL/min as follows: 0-20 min-linear gradient from 80 to 20% Buffer B; 20-20.5 min-linear gradient from 20 to 80% Buffer B; and 20.5-28 min-hold at 80% Buffer B. Data were acquired using a Thermo Q Exactive MS operated in full-scan, polarity-switching mode with a spray voltage set to 3.0 kV, the heated capillary held at 275° C., and the HESI probe held at 350° C. The sheath gas flow was set to 40 units, the auxiliary gas flow was set to 15 units, and the sweep gas flow was set to 1 unit. MS data acquisition was performed with polarity switching in a range of m/z 70-1,000, with the resolution set at 70,000, the AGC target at 10e6, and the maximum injection time at 200 ms. The QC sample was analyzed at the beginning and end of the LC-MS run and after every 10 samples.
as §3

Assay [3] relates to HCT116 cells. Kind of assay: Screen 2: metabolic profiling with unlabeled amino acids (LC-MS). To be noted: 6 hours; for increase in intracellular relative abundance of the amino acid used for treatment: 2 mM dose, relative to untreated cells. The protocol:
Media was changed to QMAP plus individual amino acid treatments at the start of the experiment. 200 mM amino acid stocks were used to make the QMAP+individual amino acid treatment medias that were placed in the tissue culture incubator for 30-45 minutes prior to the start of the dosing for equilibration of media bicarbonate with incubator CO2. For metabolomic profiling experiments, cells were treated with additional amino acid doses of 0.5, 1 and 2 mM, and 1 mM was used for stable isotope tracing experiments. To minimize systematic error, each amino acid dose was added as a batch (20 amino acids+vehicle control) such that each well of each plate contained a different amino acid. The process was repeated for the other two concentrations of amino acids on the next plates to make set. This was repeated four more times to achieve the sample size of 5 replicates for each of the 3 doses of amino acids. Each plate was then incubated for 6 hours in the tissue culture incubator before being rapidly washed twice with sterile water and snap frozen on liquid nitrogen before being stored at −80° C. The next day, the plates were lyophilized for 90 minutes and then stored at −80° C.
Extraction buffer was prepared by adding 2:2:1 methanol: acetonitrile: water. For profiling, the following internal standards (Cambridge Isotope Laboratories) were added at 1 μg/mL each: L-Valine-D8, L-Aspartate (^13C4, D3, ^15N) and Succinate (13C4D4). 6-well plates were removed from storage at −80° C. and 1 ml of ice-cold extraction buffer was added. Plates were incubated at −20° C. for 5 minutes, scraped, transferred to microcentrifuge tubes and frozen in liquid nitrogen. Tubes were then placed into a sonicating water bath for 10 minutes and rotated at −20° C. for 1 hour before being centrifuged at 4° C. for 10 minutes at 21,000×g. […] of extract was dried down completely using a speed-vacuum (˜90 min), dissolved in […] of acetonitrile: water (1:1), vortexed for 10 min, and stored overnight at −20° C. to allow protein precipitation. Samples were then centrifuged at 4° C. for 10 minutes at 21,000×g and the supernatants were transferred into autosampler vials for analysis. For the QCs, […] of each extract was pooled, at the step prior to drying down, mixed and dried in […] amounts alongside the samples. Once dried, QCs were processed with the samples but recombined prior to being aliquoted into autosampler vials. All samples were then frozen at −80° C., and only one set of samples, which included a QC aliquot, was thawed, vortexed and placed into the instrument.
The sheath gas flow was set to 40 units, the auxiliary gas flow was set to 15 units and the sweep gas flow was set to 1 unit. […] For tracing, […] of sample was injected twice in either positive or negative mode to maximize detection efficiency and minimize metabolite crowding using the Sim-mode.
LC-MS data was processed using the Thermo Scientific TraceFinder 5.1 software.
The three cell lines were then treated with 0.5, 1, and 2 mM of individual, unlabeled amino acids, and metabolic profiling was performed to determine how individual amino acids quantitatively altered metabolite abundance (Screen 2).

For another assay, the system named is IDO1 mRNA. Kind of assay: Quantitative PCR of IDO1 mRNA. To be noted: 50 ng/μL for 24 hours, HCT116.

`Nc1c(O)cccc1C(=O)CC(N)C(=O)O` (stereo not shown) [3HK, 3-hydroxykynurenine]: the cell viability result in the assay on 293T is on record as “dose-dependent decrease”. The cell viability result in the assay with U2OS is given as “dose-dependent decrease”. Besides, in the assay on HCT116 cells [1], the aconitate level result is listed as “significantly increased”; the citrate level entry is “significantly increased”; the “disruption of TCA cycle metabolites” value is on record as “more potent disruption than the other tryptophan metabolites”; the “distal TCA cycle metabolites” value is “drastically and significantly decreased”. Moreover, in the assay on HCT116 cells [1], the “glucose 6-phosphate level” value is “Significantly increased”, the “ribose 5-phosphate level” value is “Significantly increased” and the “ribulose 5-phosphate level” value was “Significantly increased”. The increase of xanthommatin with HCT116 cells [2] (2 mM dose) is listed as ~70 fold. Besides, in the assay with HCT116 cells [2] (2 mM), the “oxidized glutathione (GSSG) level” value is reported as “significantly decreased” and the “reduced glutathione (GSH) level” value is “significantly decreased”.

For `N[C@@H](CCC(=O)O)C(=O)O` [glutamate, L-glutamic acid], the “increase in intracellular relative abundance of the amino acid used for treatment” value in the assay with HCT116 cells [3] (HCT116 cells) is listed as 1.25 fold. Further, in the assay on HCT116 cells [3] (0.5, 1, 2 mM), the TCA cycle intermediates result is “increased”.

As for `NC(=O)CC[C@H](N)C(=O)O` [glutamine, L-glutamine], the “increase in intracellular relative abundance of the amino acid used for treatment” value in the assay with HCT116 cells [3] (HCT116 cells) is given as ~80 fold. The TCA cycle intermediates entry in the assay on HCT116 cells [3] (0.5, 1, 2 mM) is listed as “increased”.

As for `NCC(=O)O` [glycine, L-glycine], the serine level result in the assay with HCT116 cells [3] (0.5, 1, 2 mM, HCT116 cells) is given as “proportional, dose-dependent increase”.

Regarding `N[C@@H](CO)C(=O)O` [serine, L-serine], in the assay with HCT116 cells [3] (0.5, 1, 2 mM, HCT116 cells), the glycine levels result is reported as “did not increase”.

B1: IFN-γ: the known IDO potentiator IFN-γ (protein, UniProt P01579 24-161, looked up)
Interferon gamma: QDPYVKEAENLKKYFNAGHSDVADNGTLFLGILKNWKEESDRKIMQSQIVSFYFKLFKNFKDDQSIQKSVETIKEDMNVKFFNSNKKKRDDFEKLTNYSVTDLNVQRKAIHELIQVMAELSPAAKTGKRKRSQMLFRG
For the molecule B1, in the assay with IDO1 mRNA, the “IDO1 mRNA” value is given as “increased”.
